This passage reports IC50 results from BindingDB's records for doi:10.7270/Q2V1236D (Burnham Center For Chemical Genomics, 2009).

pIC50: −log10 of the molar value.

For this test, the target named is his6-Siah1 (aa 81-282) (Homo sapiens, UniProt Q8IUQ4). Briefly: Siah-1 binding antagonists, dose response, biochemical, TR-FRET (AID 2141).
Sequence of his6-Siah1 (aa 81-282) (Q8IUQ4 whole entry, looked up, the tested form may be a part): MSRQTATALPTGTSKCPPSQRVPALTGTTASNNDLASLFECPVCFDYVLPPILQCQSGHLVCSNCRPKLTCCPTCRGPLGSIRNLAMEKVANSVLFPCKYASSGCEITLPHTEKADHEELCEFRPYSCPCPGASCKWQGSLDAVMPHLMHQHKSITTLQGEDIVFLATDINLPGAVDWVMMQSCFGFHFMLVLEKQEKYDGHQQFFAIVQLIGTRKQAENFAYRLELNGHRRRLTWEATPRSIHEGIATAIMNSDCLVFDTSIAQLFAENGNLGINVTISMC
As for `C[N+]1(CCNC(=O)CN=O)CCCCC1`, the pIC50 was 3.89.
In turn, `CCOC(=O)C1(C)CC(=Nc2ccc(O)cc2)C(=O)N1c1ccc(O)cc1` (stereo not given) showed a pIC50 of 4.29.
`O=C(Nc1ccc(Br)cc1)c1ccc(-n2c(O)c3c(c2O)CC=CC3)cc1` [4-[1,3-bis(oxidanylidene)-3a,4,7,7a-tetrahydroisoindol-2-yl]-N-(4-bromophenyl)benzamide] gave a pIC50 of 5.37.
`CC1(C)OC(C)(C)C(=CNc2ccc(O)cc2)C1=O` [4-[(4-hydroxyanilino)methylene]-2,2,5,5-tetramethyldihydro-3(2H)-furanone] gave a pIC50 of 5.53.
Regarding `CC(C)(C)c1cc(-c2cs/c(=N\c3ccccc3)n2Cc2ccc(C(=O)O)cc2)cc(C(C)(C)C)c1O` [4-[[4-(3,5-ditert-butyl-4-oxidanyl-phenyl)-2-phenylazanyl-1,3-thiazol-3-ium-3-yl]methyl]benzoic acid;bromide], the pIC50 is 5.17.
